Laboratory results from PMC10897015, “Investigation of anti-nociceptive, anti-inflammatory potential and ADMET studies of pure compounds isolated from Isodon rugosus Wall. ex Benth” (Frontiers in Pharmacology, 2024).
Values joined by “and” are separate entries in the source; they are usually repeats but may differ in a detail not shown here. Identical values can stand only once. Marks after values point to notes of the source that are not given here.

How the values were obtained:
Swiss albino mice [1] = assay: Acetic acid-induced writhing test; type: in vivo; conditions: for Writhes, individual values: single animals, listed as Comp 2; for % analgesic activity (writhing inhibition) / Mean writhes: oral
Method: An anti-nociceptive assessment was performed on Swiss albino mice of both sexes, sourced from the National Institute of Health, Islamabad, Pakistan. […] Mice of either sex were divided into different groups, with five mice in each group. The test samples were carefully administered orally, with doses of 250, 500, 1000, and 2000 mg/kg.
I. rugosus was evaluated for its analgesic potential through an acetic acid-induced writhing test. Oral administration of the test samples was carried out using specified doses. After 30 min of interval, 10 ml/kg of acetic acid (0.6%) was injected into the mice. Group I served as the control and received 0.5% Tween-80 (3 ml/kg), group II received diclofenac sodium (10 mg/kg), and groups III and IV received test compounds. The count of writhes was recorded between 5 and 30 min, following the i/p injection of acetic acid ([Franzotti et al., 2000]).

Swiss albino mice [2] = assay: Hot plate test with opioid receptor involvement; type: in vivo; conditions: for Reaction time on hot plate, individual values: single animals; for Reaction time on the hot plate: compounds 50 mg/kg, Mor 5 mg/kg, Nal 1 mg/kg
Swiss albino mice [3] = assay: Hot plate test, involvement of adrenergic receptors; type: in vivo; conditions: single animals
Method: The analgesic effects of the isolated compounds were measured using the hot plate method at a monitored temperature of 55 ± 0.2°C. The Swiss albino mice were positioned on the heated surface of the hot plate, and the period from placement to the onset of licking their hind paws or starting jump movements was noted as the response latency (thermal reactions). The test compounds were injected intraperitoneally. […] The animal models were checked for thermal reactions at various time intervals after sample administration.
The outcomes of the positive control and tested compounds were compared in animals pretreated with yohimbine. […] Additionally, clonidine at a dose of 3 μg/kg was intravenously administered. The animals were then subjected to the hot plate method, as reported before.

mice = assay: Carrageenan-induced paw edema; type: in vivo; conditions: for % edema volume inhibition (mean): aspirin 10 mg/kg; for Paw edema percent inhibition, individual values / Paw edema, individual values: single animals
Method: The animals under study were divided into different groups. Prior to the experiment, the animals had only access to water. […] Additionally, the isolated compounds being tested were given 30 min before injecting 0.05 ml of 1% carrageenan into the sub-plantar region of the paw. To measure the volume changes in the paw, a digital plethysmometer was employed. Readings were taken before and after the carrageenan injection at hourly intervals over a total period of 5 h.

5-LOX = biological target: T1, 5-LOX (Glycine max, UniProt P08170); assay: Lipoxygenase (5-LOX) inhibitory activity; type: biochemical
T1 sequence (P08170 1-839): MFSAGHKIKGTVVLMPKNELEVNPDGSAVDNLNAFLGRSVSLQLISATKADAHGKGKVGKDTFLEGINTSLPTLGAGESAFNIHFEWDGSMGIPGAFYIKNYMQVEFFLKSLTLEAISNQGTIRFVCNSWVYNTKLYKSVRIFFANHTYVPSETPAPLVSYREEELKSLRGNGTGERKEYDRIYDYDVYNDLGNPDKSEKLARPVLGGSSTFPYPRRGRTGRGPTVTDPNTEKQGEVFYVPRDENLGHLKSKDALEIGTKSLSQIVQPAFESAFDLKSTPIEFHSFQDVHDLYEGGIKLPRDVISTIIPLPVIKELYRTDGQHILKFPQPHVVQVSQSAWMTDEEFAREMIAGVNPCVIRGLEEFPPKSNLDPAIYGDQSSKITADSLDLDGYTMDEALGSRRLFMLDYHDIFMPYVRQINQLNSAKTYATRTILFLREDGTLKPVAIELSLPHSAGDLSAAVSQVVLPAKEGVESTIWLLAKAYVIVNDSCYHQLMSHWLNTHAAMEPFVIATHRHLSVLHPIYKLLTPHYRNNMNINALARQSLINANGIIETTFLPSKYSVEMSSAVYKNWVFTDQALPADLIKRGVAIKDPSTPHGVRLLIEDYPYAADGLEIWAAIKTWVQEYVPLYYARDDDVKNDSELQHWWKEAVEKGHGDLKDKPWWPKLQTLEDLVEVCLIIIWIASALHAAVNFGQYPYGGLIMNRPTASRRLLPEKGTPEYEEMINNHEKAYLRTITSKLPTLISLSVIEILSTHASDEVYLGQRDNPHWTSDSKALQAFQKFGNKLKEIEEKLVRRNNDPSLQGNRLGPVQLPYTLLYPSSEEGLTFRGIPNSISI
Method: The enzyme solution with a concentration of 10,000 U/ml was prepared. […] A solution (80 mM) of linoleic acid (substrate) was made. Likewise, a 50 mM phosphate buffer solution with a pH of 6.3 was prepared. The substrate, enzyme, and buffer were combined in equal proportions, each in a 2 ml volume. […] The inhibition percentage was determined by comparing the absorbance of the test samples with that of the positive control.

## O=C(CCc1ccc(O)cc1)c1c(O)cc(O)cc1O [Compound 2, 2-4-4-6-tetrahydroxy-dihydrochalcone]
Swiss albino mice [1]; 10mg
  Writhes, individual values: 59.2 and 60.82 and 60.05
Swiss albino mice [1]; 20mg
  Writhes, individual values: 55.1 and 54.26 and 56.7
Swiss albino mice [1]; 25mg
  Writhes, individual values: 49.8 and 50.8 and 49.1
Swiss albino mice [1]; 50mg
  Writhes, individual values: 41.02 and 43.67 and 40.12
Swiss albino mice [1]; dose 10 mg/kg
  % analgesic activity (writhing inhibition): 1.86^ns %
Swiss albino mice [1]; dose 10 mg/kg, listed as compound 2, 10 mg/kg
  % analgesic activity (writhing inhibition): 01.86%
Swiss albino mice [1]; dose 10 mg/kg, writhes counted 5-30 min after acetic acid, 10 mg/kg
  Mean writhes: 60.02 ± 0.90
Swiss albino mice [1]; dose 10 mg/kg, writhes counted 5-30 min after acetic acid, listed as Comp 2, 10 mg/kg
  Mean writhes: 60.0233
Swiss albino mice [1]; dose 20 mg/kg
  % analgesic activity (writhing inhibition): 9.49^ns %
  Mean writhes: 55.35 ± 0.87
Swiss albino mice [1]; dose 20 mg/kg, listed as Comp 2, 20 mg/kg
  Mean writhes: 55.3533
Swiss albino mice [1]; dose 25 mg/kg
  % analgesic activity (writhing inhibition): 18.41^* %
  Mean writhes: 49.90 ± 0.20
Swiss albino mice [1]; dose 25 mg/kg, listed as Comp 2, 25 mg/kg
  Mean writhes: 49.9
Swiss albino mice [1]; dose 50 mg/kg
  % analgesic activity (writhing inhibition): 31.98^*** %
  Mean writhes: 41.60 ± 1.24
Swiss albino mice [1]; dose 50 mg/kg, listed as Comp 2, 50 mg/kg
  Mean writhes: 41.6033
Swiss albino mice [2]; at 15, listed as Comp-2
  Reaction time on hot plate, individual values: 3.02 and 3.9 and 4.6
Swiss albino mice [2]; at 30, listed as Comp-2
  Reaction time on hot plate, individual values: 4.1 and 4.17 and 5.3
Swiss albino mice [2]; at 45, listed as Comp-2
  Reaction time on hot plate, individual values: 3.12 and 2.58 and 4.1
Swiss albino mice [2]; at 60, listed as Comp-2
  Reaction time on hot plate, individual values: 2.3
Swiss albino mice [2]; at 90, listed as Comp-2
  Reaction time on hot plate, individual values: 2.06 and 2.49 and 3.99
Swiss albino mice [2]; at 15 min
  Reaction time on the hot plate: 03.84 ± 0.03 s
Swiss albino mice [2]; at 15 min, listed as Comp-2
  Reaction time on the hot plate: 3.84 s
Swiss albino mice [2]; at 30 min
  Reaction time on the hot plate: 04.52 ± 0.09 s
Swiss albino mice [2]; at 30 min, listed as Comp-2
  Reaction time on the hot plate: 4.523 s
Swiss albino mice [2]; at 45 min
  Reaction time on the hot plate: 3.27 ± 0.48 s
Swiss albino mice [2]; at 45 min, listed as Comp-2
  Reaction time on the hot plate: 3.267 s
Swiss albino mice [2]; at 60 min
  Reaction time on the hot plate: 3.18 ± 0.34 s
Swiss albino mice [2]; at 60 min, listed as Comp-2
  Reaction time on the hot plate: 3.183 s
Swiss albino mice [2]; at 90 min
  Reaction time on the hot plate: 2.85 ± 0.29 s
Swiss albino mice [2]; at 90 min, listed as Comp-2
  Reaction time on the hot plate: 2.847 s
Swiss albino mice [3]; 30 Minutes
  Hot plate analysis (adrenergic), individual values: 3.19 and 3.88 and 3.2
Swiss albino mice [3]; 45 Minutes
  Hot plate analysis (adrenergic), individual values: 4.32 and 3.32 and 3.1
Swiss albino mice [3]; 15 minutes
  Hot plate analysis (adrenergic), individual values: 2.32 and 1.9 and 3.49
Swiss albino mice [3]; 60 minutes
  Hot plate analysis (adrenergic), individual values: 3.2 and 2.9 and 4.02
Swiss albino mice [3]; 90 minutes
  Hot plate analysis (adrenergic), individual values: 3.1 and 2.75 and 3.61
mice; 1st hour after carrageenan, listed as Comp 2
  % edema volume inhibition (mean): 36.72%
mice; 2nd hour after carrageenan
  % edema volume inhibition (mean): 37.45%
mice; 3rd hour after carrageenan
  % edema volume inhibition (mean): 39.6788%
mice; 4th hour after carrageenan
  % edema volume inhibition (mean): 32.922%
mice; 5th hour after carrageenan
  % edema volume inhibition (mean): 29.246%
mice; hour 1, listed as Comp 2
  Paw edema percent inhibition, individual values: 42.03% and 38.64% and 36.29% and 31.91% and 34.73%
  Paw edema, individual values: 0.44 and 0.47 and 0.488 and 0.521 and 0.5
mice; hour 2, listed as Comp 2
  Paw edema percent inhibition, individual values: 38.57% and 37.62% and 36.26% and 39.35%
  Paw edema, individual values: 0.454 and 0.461 and 0.471 and 0.45 and 0.457
mice; hour 3, listed as Comp 2
  Paw edema percent inhibition, individual values: 40.08% and 38.48% and 38.75% and 40.75% and 40.334%
  Paw edema, individual values: 0.45 and 0.462 and 0.46 and 0.445 and 0.449
mice; hour 4, listed as Comp 2
  Paw edema percent inhibition, individual values: 32.11% and 31.19% and 31.85% and 32.63% and 36.83%
  Paw edema, individual values: 0.518 and 0.525 and 0.52 and 0.514 and 0.482
mice; hour 5, listed as Comp 2
  Paw edema percent inhibition, individual values: 29.96% and 29.27% and 30.23% and 28.18% and 28.59%
  Paw edema, individual values: 0.512 and 0.517 and 0.51 and 0.525 and 0.522
5-LOX; read-out: % inhibition 5-LOX (mean ± SEM), 62.5 µg/ml
  inhibition at 62.5 µg/mL: 21.1 ± 0.9%
5-LOX; read-out: % inhibition 5-LOX (mean ± SEM), 250 µg/ml
  inhibition at 250 µg/mL: 31.1 ± 0.2%
5-LOX; read-out: % inhibition 5-LOX (mean ± SEM), 500 µg/ml
  inhibition at 500 µg/mL: 36.7 ± 0.67%
5-LOX; read-out: % inhibition 5-LOX (mean ± SEM), 1000 µg/ml
  inhibition at 1000 µg/mL: 41.43 ± 0.38%
